Data: PubChem BioAssay AID743070 (Broad Institute, 2013)
The source made the active and inactive calls. No rule for the calls is given here.

Assay: growth inhibition of wild-type Mtb, BioA inhibitor project, biotin-free medium, plate reader, dry powder (AID 743070)
Conditions: M. tuberculosis wild type growth; for IC90: measured here: Mtb growth IC90

Row | Compound | IC50 | IC90
1 | Cc1ccc(/C=C(\CCC(=O)O)c2nc3ccccc3s2)cc1[N+](=O)[O-] | 1.1 µM | 2.5 µM
2 | Cc1ccc(/C=C(\CCC(=O)O)c2nc3ccccc3s2)cc1 | 2 µM | 4.8 µM
3 | CC(=O)c1ccc(N2CCN(C(=O)c3ccc4ncsc4c3)CC2)cc1 | 22.2 µM | > 50 µM
4 | O=C(c1ccc2c(c1)OCO2)N1CCN(c2ccccc2)CC1 | 23.2 µM | > 50 µM
5 | Cc1ccc(NC(=O)N2CCN(c3ccccc3)CC2)cc1 | 10.3 µM | > 50 µM
6 | O=C(Nc1cccc(F)c1)N1CCN(c2ccccc2)CC1 | 8.2 µM | > 50 µM
7 | COc1cccc(NC(=O)CCC2CCN(C(=O)c3ccc(C(C)=O)s3)CC2)c1 | 10.7 µM | > 50 µM
8 | CC(=O)c1ccc(N2CCN(C(=O)c3ccc(F)cc3)CC2)cc1 | 50 µM | > 50 µM
9 | COc1cccc(C(=O)N2CCN(c3ccc(C(C)=O)cc3)CC2)c1 | 50 µM | > 50 µM
10 | CC(=O)c1ccc(N2CCN(C(=O)c3cccc(Cl)c3)CC2)cc1 | 7.5 µM | 27.5 µM
11 | COc1cc(/C=C/C(=O)Nc2cccnc2)cc(OC)c1OC | 13.7 µM | > 50 µM
12 | Cc1cccc(/C=C(\CCC(=O)O)c2nc3ccccc3s2)c1 | 3.1 µM | 11 µM
13 | O=C(Nc1ccc2snnc2c1)N1CCN(c2ccccc2)CC1 | 3.2 µM | 17.9 µM
14 | COc1ccc(N2CCN(C(=O)c3ccc4c(c3)OCO4)CC2)cc1 | 9.7 µM | > 50 µM
15 | CC(=O)c1ccc(N2CCN(C(=O)c3ccc(Cl)cc3)CC2)cc1 | > 50 µM (inactive) | > 50 µM
16 | O=C(COc1ccc2ccc(=O)oc2c1)N1CCN(c2ccc(F)cc2)CC1 | 50 µM | > 50 µM
17 | COc1ccc(NC(=O)N2CCN(c3ccccc3)CC2)cc1 | 50 µM | > 50 µM
18 | CC(=O)c1ccc(N2CCN(C(=O)c3ccc(Br)cc3)CC2)c(F)c1 | 10.3 µM | > 50 µM
19 | CC(=O)c1ccc(N2CCN(C(=O)c3ccc(C)cc3)CC2)cc1 | > 50 µM (inactive) | > 50 µM
20 | COc1cccc(NC(=O)N2CCN(c3ccccc3)CC2)c1 | 50 µM | > 50 µM

Row | Compound | IC50 | IC90
21 | CCN(CC)c1ccc2cc(C(=O)c3cccs3)c(=O)oc2c1 | 3.8 µM | 20.7 µM
22 | O=C(Nc1cccc(Cl)c1)N1CCN(c2ccccc2)CC1 | 5 µM | > 50 µM
23 | O=C(Nc1ccccc1)N1CCN(c2ccccc2)CC1 | 6.9 µM | > 50 µM
24 | O=C(Nc1cccnc1)N1CCN(c2ccccc2)CC1 | > 50 µM (inactive) | > 50 µM
25 | CC(=O)c1ccc(N2CCN(C(=O)c3cccnc3)CC2)cc1 | > 50 µM (inactive) | > 50 µM
26 | Cc1ccccc1/C=C(\CCC(=O)O)c1nc2ccccc2s1 | 8.3 µM | 44.1 µM
27 | CC(=O)c1ccc(N2CCN(C(=O)c3cccc(F)c3)CC2)cc1 | > 50 µM (inactive) | > 50 µM
28 | COc1ccc(C(=O)N2CCN(c3ccc(C(C)=O)cc3)CC2)cc1 | > 50 µM (inactive) | > 50 µM
29 | Cc1nc2ccc(NC(=O)N3CCN(c4ccccc4)CC3)cc2s1 | 2.1 µM | 6.8 µM
30 | O=C(Nc1ccc2snnc2c1)N1CCCCC1 | 50 µM | > 50 µM
31 | Cc1cc(C)n2nc(C(=O)Nc3cccnc3)cc2n1 | 21.8 µM | > 50 µM
32 | CCc1ccc(N2CCN(C(=O)c3ccc4c(c3)OCO4)CC2)cc1 | 9.6 µM | > 50 µM
33 | O=C(Nc1ccncc1)c1cc2nc(C3CC3)cc(C(F)F)n2n1 | 50 µM | > 50 µM
34 | O=C(O)CC/C(=C\c1ccc([N+](=O)[O-])cc1)c1nc2ccccc2s1 | 8.9 µM | 34.4 µM
35 | CC(=O)c1ccc(N2CCN(C(=O)c3ccc4c(c3)OCO4)CC2)cc1 | 5 µM | 26.3 µM
36 | O=C(Nc1ccc2[nH]ccc2c1)N1CCN(c2ccccc2)CC1 | 7 µM | > 50 µM
37 | Cc1nc2cc(NC(=O)N3CCN(c4ccccc4)CC3)ccc2o1 | 50 µM | > 50 µM
38 | Cc1ccc(-c2cc(C(F)(F)F)n3nc(C(=O)Nc4cccnc4)cc3n2)cc1 | > 50 µM (inactive) | > 50 µM
39 | Cc1ccc(/C=C(\CC(=O)O)c2nc3ccccc3s2)cc1[N+](=O)[O-] | 6.8 µM | > 50 µM
40 | COc1ccc(-c2cc(C(F)(F)F)n3nc(C(=O)Nc4cccnc4)cc3n2)cc1 | 2.7 µM | > 50 µM

Row | Compound | IC50 | IC90
41 | CC(C)(C)c1ccc(C(=O)N2CCN(c3ccc4c(c3)OCO4)CC2)cc1 | 14.9 µM | > 50 µM
42 | Cc1ccc(/C=C(\CCCC(=O)O)c2nc3ccccc3s2)cc1[N+](=O)[O-] | 8.4 µM | > 63.3 µM
43 | O=C(Nc1ccc(Cl)cc1)c1cc2nc(C3CC3)cc(C(F)(F)F)n2n1 | 50 µM | > 50 µM
44 | O=C(c1ccc2c(c1)OCO2)N1CCN(c2ccc(F)cc2)CC1 | 22 µM | > 50 µM
45 | CCc1ccc(C(=O)N2CCN(Cc3ccc4c(c3)OCO4)CC2)cc1 | 8.5 µM | > 50 µM
46 | COC(=O)c1c(C(=O)OC)c(-c2cccc(F)c2)n2c1CS(=O)C2 (stereo not given) | 15.9 µM | > 50 µM
47 | CC(=O)c1ccc(N2CCN(C(=O)c3ccccc3)CC2)cc1 | > 50 µM (inactive) | > 50 µM
48 | O=C(Nc1ccc(F)cc1)N1CCN(c2ccccc2)CC1 | 14.1 µM | > 50 µM
49 | O=C(Nc1cccnc1)c1cc2nc(-c3cccs3)cc(C(F)(F)F)n2n1 | > 50 µM (inactive) | > 50 µM
50 | O=C(c1ccc2c(c1)OCO2)N1CCN(Cc2ccccc2)CC1 | > 50 µM (inactive) | > 50 µM
51 | O=C(Nc1ccc2snnc2c1)N1CCOCC1 | > 50 µM (inactive) | > 50 µM
52 | CCOC(=O)N1CCN(C(=O)Nc2ccc3snnc3c2)CC1 | 14.6 µM | > 50 µM
53 | Cc1cc(C)n2nc(C(=O)Nc3cccnc3)nc2n1 | > 50 µM (inactive) | > 50 µM
54 | O=C(O)CC/C(=C\c1ccccc1[N+](=O)[O-])c1nc2ccccc2s1 | 50 µM | > 50 µM
55 | O=C(Nc1cccnc1)c1cnn2c(C(F)F)cc(C3CC3)nc12 | > 50 µM (inactive) | > 50 µM
56 | O=C(c1ccc2c(c1)OCO2)N1CCN(c2ccc(Cl)cc2)CC1 | 11.2 µM | 49.2 µM
57 | O=C(Nc1cccnc1)c1cnn2c(C(F)(F)F)cc(-c3ccccc3)nc12 | > 50 µM (inactive) | > 50 µM
58 | CC(=O)c1ccc(N2CCN(C(=O)c3ccc4c(c3)OCCO4)CC2)cc1 | > 50 µM (inactive) | > 50 µM
59 | O=C(Nc1ccc(Cl)c(-c2nc3ccccc3[nH]2)c1)c1cccnc1 | 7.4 µM | 46 µM
60 | CC(=O)c1ccc(N2CCN(Cc3ccc4c(c3)OCO4)CC2)cc1 | 31.2 µM | > 50 µM
